Source: PubChem BioAssay (NCI)
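Results reflect a 48-hour exposure of cells in 96-well plates to compound at five concentrations. The concentration for 50% growth inhibition is given as GI50. TGI: total growth inhibition.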

Experiments:
Assay in all cases: NCI tumour cell line growth inhibition, 48 h
[1] = tested on: DLD-1 colon
[2] = tested on: LOX IMVI melanoma
[3] = tested on: UO-31 renal
[4] = tested on: SNB-78 CNS
[5] = tested on: SK-MEL-28 melanoma
[6] = tested on: MALME-3M melanoma
[7] = tested on: UACC-257 melanoma
[8] = tested on: UACC-62 melanoma
[9] = tested on: DMS 114 small cell lung
[10] = tested on: SK-OV-3 ovarian
[11] = tested on: SW-620 colon
[12] = tested on: TK-10 renal
[13] = tested on: EKVX NSCLC
[14] = tested on: A549 NSCLC
[15] = tested on: CCRF-CEM leukemia
[16] = tested on: DMS 273 small cell lung
[17] = tested on: XF 498 CNS
[18] = tested on: A498 renal
[19] = tested on: RPMI-8226 leukemia
[20] = tested on: IGROV1 ovarian
[21] = tested on: SN12C renal
[22] = tested on: ACHN renal
[23] = tested on: NCI-H460 lung
[24] = tested on: HCT-116 colon
[25] = tested on: OVCAR-8 ovarian
[26] = tested on: KM12 colon
[27] = tested on: HL-60(TB) leukemia
[28] = tested on: SF-268 CNS
[29] = tested on: RXF 393 renal
[30] = tested on: 786-0 renal
[31] = tested on: HCC-2998 colon
[32] = tested on: NCI-H23 lung
[33] = tested on: OVCAR-3 ovarian
[34] = tested on: NCI-H522 lung
[35] = tested on: CAKI-1 renal
[36] = tested on: SNB-19 CNS
[37] = tested on: SF-539 CNS
[38] = tested on: KM20L2 colon
[39] = tested on: SNB-75 CNS
[40] = tested on: U251 CNS
[41] = tested on: HOP-92 NSCLC
[42] = tested on: COLO 205 colon
[43] = tested on: RXF-631 renal
[44] = tested on: SK-MEL-5 melanoma
[45] = tested on: HOP-62 NSCLC
[46] = tested on: HT29 colon
[47] = tested on: NCI-H226 lung
[48] = tested on: K-562 leukemia
[49] = tested on: M14 melanoma
[50] = tested on: HOP-18 NSCLC
[51] = tested on: OVCAR-5 ovarian
[52] = tested on: M19-MEL melanoma
[53] = tested on: SF-295 CNS
[54] = tested on: OVCAR-4 ovarian
[55] = tested on: LXFL 529 NSCLC
[56] = tested on: SK-MEL-2 melanoma
[57] = tested on: HCT-15 colon
[58] = tested on: MOLT-4 leukemia

CCOC(=O)C1N(S(=O)(=O)c2ccc(C)cc2)CCC12C(c1ccc(OC)c(OC)c1)=Nc1ccccc12 (stereo not drawn)
TGI [1]: > 100 µM
TGI [2]: > 100 µM
TGI [3]: > 100 µM
TGI [4]: > 100 µM
TGI [5]: > 100 µM
TGI [6]: > 100 µM
TGI [7]: > 100 µM
TGI [8]: > 100 µM
TGI [9]: > 100 µM
TGI [10]: > 100 µM
TGI [11]: > 100 µM
TGI [12]: > 100 µM
TGI [13]: > 100 µM
TGI [14]: > 100 µM
TGI [15]: > 100 µM
TGI [16]: > 100 µM
TGI [17]: > 100 µM
TGI [18]: > 100 µM
TGI [19]: > 100 µM
TGI [20]: > 100 µM
TGI [21]: > 100 µM
TGI [22]: > 100 µM
TGI [23]: > 100 µM
TGI [24]: > 100 µM
TGI [25]: > 100 µM
TGI [26]: > 100 µM
TGI [27]: > 100 µM
TGI [28]: > 100 µM
TGI [29]: > 100 µM
TGI [30]: > 100 µM
TGI [31]: > 100 µM
TGI [32]: > 100 µM
TGI [33]: > 100 µM
TGI [34]: > 100 µM
TGI [35]: > 100 µM
TGI [36]: > 100 µM
TGI [37]: > 100 µM
TGI [38]: > 100 µM
TGI [39]: > 100 µM
TGI [40]: > 100 µM
TGI [41]: > 100 µM
TGI [42]: > 100 µM
TGI [43]: > 100 µM
TGI [44]: > 100 µM
TGI [45]: > 100 µM
TGI [46]: > 100 µM
TGI [47]: > 100 µM
TGI [48]: > 100 µM
TGI [49]: > 100 µM
TGI [50]: > 100 µM
TGI [51]: > 100 µM
TGI [52]: > 100 µM
TGI [53]: > 100 µM
TGI [54]: > 100 µM
TGI [55]: > 100 µM

C[PH+](C)C.C[PH+](C)C.[Au]
TGI [1]: 11.2 µM
TGI [2]: 18 µM
TGI [3]: 54.8 µM
TGI [4]: 52.6 µM
TGI [5]: 8.29 µM
TGI [6]: 4.02 µM
TGI [7]: 29.3 µM
TGI [8]: 18.2 µM
TGI [9]: 15.6 µM
TGI [10]: > 90.2 µM
TGI [11]: 9.22 µM
TGI [12]: 35.4 µM
TGI [13]: 12.3 µM
TGI [14]: > 100 µM
TGI [15]: 4.98 µM
TGI [16]: 68.7 µM
TGI [17]: 7.8 µM
TGI [19]: 10.1 µM
TGI [20]: 35.7 µM
TGI [21]: 25.4 µM
TGI [22]: > 68.4 µM
TGI [23]: > 100 µM
TGI [24]: 27.7 µM
TGI [25]: 19 µM
TGI [26]: 41.9 µM
TGI [27]: 2.51 µM
TGI [28]: 15.2 µM
TGI [56]: 13.6 µM
TGI [29]: 2.89 µM
TGI [30]: 10.9 µM
TGI [31]: > 60.6 µM
TGI [32]: 11.2 µM
TGI [33]: 15.7 µM
GI50 [34]: 0.247 µM
TGI [34]: 0.771 µM
TGI [35]: 32.8 µM
TGI [36]: 21.2 µM
TGI [37]: 24.6 µM
TGI [38]: 47.8 µM
TGI [39]: 30.1 µM
TGI [40]: 15.2 µM
TGI [41]: 6.58 µM
TGI [57]: 6.21 µM
TGI [42]: > 34.2 µM
TGI [43]: 13.1 µM
TGI [44]: 13.4 µM
TGI [45]: 98 µM
TGI [46]: 20.8 µM
TGI [58]: 13.9 µM
TGI [47]: 34.4 µM
TGI [48]: 10.6 µM
TGI [49]: 7.45 µM
TGI [50]: 10.4 µM
TGI [51]: 24.9 µM
TGI [52]: 28.1 µM
TGI [53]: > 56.7 µM
TGI [54]: 24.5 µM
TGI [55]: 3.48 µM
